Experimental data as given in the NIST ThermoML archive (doi:10.1016/j.jct.2019.02.025).

Tests used:
[1] = refractive index (Na D-line) (dimensionless); conditions: 101.33 kPa, Liquid, Standard Abbe refractometry
[2] = for mass density / kinematic viscosity: 101.33 kPa, Liquid; for mass density: Vibrating tube method; for surface tension liquid-gas / kinematic viscosity: Surface laser light scattering (SLLS)

CCCCCCCC(=O)OCC [ethyl octanoate]
Conditions | kinematic viscosity [m2/s] | mass density [kg/m3] | refractive index | surface tension liquid-gas [mN/m]
[1], 278.15 K | – | – | 1.42461 | –
[1], 283.15 K | – | – | 1.42242 | –
[1], 288.15 K | – | – | 1.42025 | –
[1], 293.15 K | – | – | 1.41807 | –
[1], 298.15 K | – | – | 1.41587 | –
[1], 303.15 K | – | – | 1.41367 | –
[1], 308.15 K | – | – | 1.41148 | –
[1], 313.15 K | – | – | 1.40926 | –
[1], 318.15 K | – | – | 1.40703 | –
[1], 323.15 K | – | – | 1.40481 | –
[1], 328.15 K | – | – | 1.40261 | –
[1], 333.15 K | – | – | 1.40042 | –
[1], 338.15 K | – | – | 1.39823 | –
[1], 343.15 K | – | – | 1.39603 | –
[1], 348.15 K | – | – | 1.39386 | –
[1], 353.15 K | – | – | 1.3917 | –
[1], 358.15 K | – | – | 1.38955 | –
[2], 293.15 K | – | 866.99 | – | –
[2], 298.15 K | 1.52e-06 | – | – | 25.38
[2], 303.15 K | – | 858.27 | – | –
[2], 313.15 K | – | 849.55 | – | –
[2], 323.14 K | 1.15e-06 | – | – | 23.34
[2], 323.15 K | – | 839.92 | – | –
[2], 333.15 K | – | 832 | – | –
[2], 343.15 K | – | 823.46 | – | –
[2], 348.17 K | 8.92e-07 | – | – | 21.5
[2], 353.15 K | – | 814.74 | – | –
[2], 363.15 K | – | 805.97 | – | –
[2], 373.15 K | – | 797.16 | – | –
[2], 373.19 K | 6.88e-07 | – | – | 19.5
[2], 383.15 K | – | 788.08 | – | –
[2], 393.15 K | – | 779.34 | – | –
[2], 398.2 K | 5.45e-07 | – | – | 17.44
[2], 403.15 K | – | 770.31 | – | –
[2], 413.15 K | – | 761.18 | – | –
[2], 423.15 K | – | 751.94 | – | –
[2], 423.18 K | 4.53e-07 | – | – | 15.36
[2], 433.15 K | – | 742.64 | – | –
[2], 443.15 K | – | 733.17 | – | –
[2], 448.17 K | 3.86e-07 | – | – | 13.16
[2], 453.15 K | – | 723.58 | – | –

CCCCCCCC(=O)OC [methyl octanoate]
Conditions | kinematic viscosity [m2/s] | mass density [kg/m3] | refractive index | surface tension liquid-gas [mN/m]
[1], 278.15 K | – | – | 1.42385 | –
[1], 283.15 K | – | – | 1.42168 | –
[1], 288.15 K | – | – | 1.41951 | –
[1], 293.15 K | – | – | 1.41734 | –
[1], 298.15 K | – | – | 1.41516 | –
[1], 303.15 K | – | – | 1.41298 | –
[1], 308.15 K | – | – | 1.41079 | –
[1], 313.15 K | – | – | 1.40854 | –
[1], 318.15 K | – | – | 1.40629 | –
[1], 323.15 K | – | – | 1.40405 | –
[1], 328.15 K | – | – | 1.40183 | –
[1], 333.15 K | – | – | 1.39965 | –
[1], 338.15 K | – | – | 1.3975 | –
[1], 343.15 K | – | – | 1.39535 | –
[1], 348.15 K | – | – | 1.3932 | –
[1], 353.15 K | – | – | 1.39104 | –
[1], 358.15 K | – | – | 1.38886 | –
[2], 293.15 K | – | 876.58 | – | –
[2], 298.19 K | 1.51e-06 | – | – | 24.65
[2], 303.15 K | – | 866.75 | – | –
[2], 313.15 K | – | 858.95 | – | –
[2], 323.15 K | – | 850.13 | – | –
[2], 323.21 K | 1.09e-06 | – | – | 23.02
[2], 333.15 K | – | 841.3 | – | –
[2], 343.15 K | – | 832.44 | – | –
[2], 348.23 K | 8.31e-07 | – | – | 21.61
[2], 353.15 K | – | 823.54 | – | –
[2], 363.15 K | – | 814.59 | – | –
[2], 373.15 K | – | 805.56 | – | –
[2], 373.28 K | 6.5e-07 | – | – | 19.62
[2], 383.15 K | – | 796.52 | – | –
[2], 393.15 K | – | 787.36 | – | –
[2], 398.31 K | 5.19e-07 | – | – | 17.62
[2], 403.15 K | – | 778.1 | – | –
[2], 413.15 K | – | 768.72 | – | –
[2], 423.15 K | – | 759.27 | – | –
[2], 423.31 K | 4.3e-07 | – | – | 15.47
[2], 433.15 K | – | 749.61 | – | –
[2], 443.15 K | – | 739.56 | – | –
[2], 448.33 K | 3.59e-07 | – | – | 13.44
[2], 453.15 K | – | 729.82 | – | –

CCCCCCC(=O)OC [methyl heptanoate]
Conditions | kinematic viscosity [m2/s] | mass density [kg/m3] | refractive index | surface tension liquid-gas [mN/m]
[1], 278.15 K | – | – | 1.41865 | –
[1], 283.15 K | – | – | 1.41643 | –
[1], 288.15 K | – | – | 1.41421 | –
[1], 293.15 K | – | – | 1.41199 | –
[1], 298.15 K | – | – | 1.40976 | –
[1], 303.15 K | – | – | 1.40753 | –
[1], 308.15 K | – | – | 1.4053 | –
[1], 313.15 K | – | – | 1.40301 | –
[1], 318.15 K | – | – | 1.4007 | –
[1], 323.15 K | – | – | 1.39841 | –
[1], 328.15 K | – | – | 1.39614 | –
[1], 333.15 K | – | – | 1.39389 | –
[1], 338.15 K | – | – | 1.39167 | –
[1], 343.15 K | – | – | 1.38946 | –
[1], 348.15 K | – | – | 1.38724 | –
[1], 353.15 K | – | – | 1.38501 | –
[1], 358.15 K | – | – | 1.38276 | –
[2], 293.15 K | – | 879.29 | – | –
[2], 298.13 K | 1.22e-06 | – | – | 24.75
[2], 303.15 K | – | 870.75 | – | –
[2], 313.15 K | – | 861.6 | – | –
[2], 323.15 K | – | 852.39 | – | –
[2], 323.17 K | 8.92e-07 | – | – | 23
[2], 333.15 K | – | 843.15 | – | –
[2], 343.15 K | – | 833.87 | – | –
[2], 348.19 K | 6.79e-07 | – | – | 21.02
[2], 353.15 K | – | 824.55 | – | –
[2], 363.15 K | – | 814.17 | – | –
[2], 373.15 K | – | 805.69 | – | –
[2], 373.26 K | 5.32e-07 | – | – | 18.72
[2], 383.15 K | – | 796.11 | – | –
[2], 393.15 K | – | 786.44 | – | –
[2], 398.29 K | 4.34e-07 | – | – | 16.66
[2], 403.15 K | – | 776.63 | – | –
[2], 413.15 K | – | 766.7 | – | –
[2], 423.15 K | – | 756.62 | – | –
[2], 423.26 K | 3.66e-07 | – | – | 14.43
[2], 433.15 K | – | 746.31 | – | –
[2], 448.29 K | 3.14e-07 | – | – | 12.33
